# Data: article PMC13544220, “Glycemic and bodyweight effects of GIPR coding variation reflect differences in surface expression and intrinsic functional impairment” (Science Advances, 2026)
# Residue numbers refer to the chain shown, from its start.
# Tests used:
# [1] = biological target: T1, wild-type and variant SNAP-GIPR (Homo sapiens, UniProt P48546, E354Q); experiment: cAMP concentration response (HTRF) in AD293 cells, SNAP-GIPR; type: cell-based; conditions: AD293, SNAP-GIPR E354Q, 0.1% BSA
# T1 construct: the endogenous GIPR signal peptide was removed and replaced with a SNAPf tag; host or cells: AD293 (adherent HEK293), transient transfection
# T1 sequence (P48546 22-466 E354Q): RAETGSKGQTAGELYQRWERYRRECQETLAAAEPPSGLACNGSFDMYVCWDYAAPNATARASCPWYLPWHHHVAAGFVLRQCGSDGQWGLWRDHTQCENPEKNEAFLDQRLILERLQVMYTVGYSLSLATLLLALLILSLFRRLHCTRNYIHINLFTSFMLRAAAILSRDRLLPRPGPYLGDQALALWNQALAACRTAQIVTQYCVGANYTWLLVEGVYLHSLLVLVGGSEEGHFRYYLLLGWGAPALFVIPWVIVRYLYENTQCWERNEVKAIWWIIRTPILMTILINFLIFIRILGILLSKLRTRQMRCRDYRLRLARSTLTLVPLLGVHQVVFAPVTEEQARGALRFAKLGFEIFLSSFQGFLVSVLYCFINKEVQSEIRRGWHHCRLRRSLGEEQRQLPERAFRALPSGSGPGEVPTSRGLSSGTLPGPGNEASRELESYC
# Method: (Imperial College London): 24 hours before the experiment, AD293 cells were reverse transfected with the GIPR variant or wild-type plasmids using Lipofectamine 2000 in 12-well plates. All variants were tested in parallel on each occasion to control for transfection efficiency differences between experiments. […] Data were fit using a three-parameter logistic model using GraphPad Prism 10.
# hGIPR WT = biological target: T2, hGIPR WT (Homo sapiens, UniProt P48546); experiment: cAMP accumulation in HEK293 cells, untagged GIPR (Eli Lilly); type: cell-based; conditions: HEK-293, untagged, 0.1% casein, (SEM, n), n=4
# T2 construct: expressed in transfected cells; host or cells: HEK293, transient
# T2 sequence (P48546 22-466): T1 sequence (P48546 22-466 E354Q) with Q333E
# [2] = tested on: membranes from untransfected HEK293 cells; experiment: [125I]GIP(1-42)OH radioligand binding, untransfected control; design: species or system human; conditions: either assay condition
# Method: Radioligand binding to the GIPR variant receptors was performed using the assay procedure described in ([59]) with some slight modification in the buffer. […] A3782), and 25 mM Hepes (Gibco, catalog no. […] The assay was incubated overnight at 25°C and then centrifuged at 1000 rpm (Beckman Coulter, Avanti J-15R).
Molecule,cAMP signaling (∆LogEmax/EC50) [1],Emax (hGIPR WT),"specific binding, untransfected HEK293 membranes [2]"
CC[C@H](C)[C@H](NC(=O)[C@H](CC(C)C)NC(=O)[C@H](Cc1c[nH]c2ccccc12)NC(=O)[C@H](CCC(N)=O)NC(=O)[C@@H](NC(=O)[C@H](Cc1ccccc1)NC(=O)[C@H](C)NC(=O)[C@H](CCCCNC(=O)COCCOCCNC(=O)COCCOCCNC(=O)CC[C@H](NC(=O)CCCCCCCCCCCCCCCCCCC(=O)O)C(=O)O)NC(=O)[C@H](CCC(N)=O)NC(=O)[C@H](C)NC(=O)[C@@H](NC(=O)[C@H](CCCCN)NC(=O)[C@H](CC(=O)O)NC(=O)[C@H](CC(C)C)NC(=O)C(C)(C)NC(=O)[C@@H](NC(=O)[C@H](CO)NC(=O)[C@H](Cc1ccc(O)cc1)NC(=O)[C@H](CC(=O)O)NC(=O)[C@H](CO)NC(=O)[C@@H](NC(=O)[C@H](Cc1ccccc1)NC(=O)[C@@H](NC(=O)CNC(=O)[C@H](CCC(=O)O)NC(=O)C(C)(C)NC(=O)[C@@H](N)Cc1ccc(O)cc1)[C@@H](C)O)[C@@H](C)O)[C@@H](C)CC)[C@@H](C)CC)C(C)C)C(=O)N[C@@H](C)C(=O)NCC(=O)NCC(=O)N1CCC[C@H]1C(=O)N[C@@H](CO)C(=O)N[C@@H](CO)C(=O)NCC(=O)N[C@@H](C)C(=O)N1CCC[C@H]1C(=O)N1CCC[C@H]1C(=O)N1CCC[C@H]1C(=O)N[C@@H](CO)C(N)=O [tirzepatide],increased cAMP signaling,90.6%,–
[125I]GIP(1-42)OH: radioligand [125I]GIP(1-42)OH (Revvity),–,–,no significant specific binding detected
